US7741350B1 (Cara Therapeutics, Inc., priority 2009, dated 2010)
Read-outs that look alike come from different tables or passages of the source.

Key:
[1] = target: human CB1 receptor (hCB1) (Homo sapiens, UniProt P21554); experiment: cAMP assay at human CB1 receptor; assay type: cell-based; details: hCB1R; maximum measurable range 30 μM; read-out: EC50 (Potency at Human CB1 determined by cAMP Assay)
Method: The ability of each of the compounds to act as agonists or inverse agonists at human CB2 and CB1 receptors (hCB2, hCB1, respectively) and at the rat CB2 receptor (rCB2) was determined by measuring changes in intracellular cyclic AMP (cAMP) levels as described in U.S. Pat. No. 7,517,874.
TR-FRET was measured using a 330-380 nm excitation filter, 615 nm and 665 nm emission filters, dichroic minor 380 nm and Z=10 mm. cAMP concentrations in each well were back-calculated from a cAMP standard curve run concurrently during each assay. Each plate contained 16 wells of forskolin stimulated cells and 16 wells of forskolin plus 1 μM CP55,940-treated cells. Concentrations of cAMP were expressed as a percent of the difference of these two groups of wells. Concentration-response data including EC50 (the concentration of compound producing 50% of the maximal response) and intrinsic activity (the percent maximal activation compared to full activation by CP55, 940) were determined using a four-parameter non-linear regression algorithm (CambridgeSoft Bioassay).

[2] = target: human CB2 receptor (hCB2) (Homo sapiens, UniProt P34972); experiment: cAMP assay at human CB2 receptor; assay type: cell-based; details: hCB2R, maximum measurable range 30 μM
human CB2 receptor (hCB2), sequence (P34972 whole entry): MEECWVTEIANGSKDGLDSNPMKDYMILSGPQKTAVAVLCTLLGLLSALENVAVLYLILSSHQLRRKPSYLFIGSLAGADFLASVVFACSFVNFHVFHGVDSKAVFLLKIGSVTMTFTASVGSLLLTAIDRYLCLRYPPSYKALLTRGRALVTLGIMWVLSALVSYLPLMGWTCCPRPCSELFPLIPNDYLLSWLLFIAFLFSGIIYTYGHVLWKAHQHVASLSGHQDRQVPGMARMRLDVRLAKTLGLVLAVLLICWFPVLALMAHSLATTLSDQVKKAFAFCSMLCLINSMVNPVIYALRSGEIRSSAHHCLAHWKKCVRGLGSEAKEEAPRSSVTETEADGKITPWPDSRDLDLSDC
Method: TR-FRET was measured using a 330-380 nm excitation filter, 615 nm and 665 nm emission filters, dichroic minor 380 nm and Z=10 mm. cAMP concentrations in each well were back-calculated from a cAMP standard curve run concurrently during each assay. Each plate contained 16 wells of forskolin stimulated cells and 16 wells of forskolin plus 1 μM CP55,940-treated cells. Concentrations of cAMP were expressed as a percent of the difference of these two groups of wells.

[3] = EC50 (Potency at Human CB2 determined by cAMP Assay)
[4] = read-out: EC50 (Potency at Human CB2 determined by cAMP Assay)

human CB1 receptor (hCB1), sequence (P21554 whole entry): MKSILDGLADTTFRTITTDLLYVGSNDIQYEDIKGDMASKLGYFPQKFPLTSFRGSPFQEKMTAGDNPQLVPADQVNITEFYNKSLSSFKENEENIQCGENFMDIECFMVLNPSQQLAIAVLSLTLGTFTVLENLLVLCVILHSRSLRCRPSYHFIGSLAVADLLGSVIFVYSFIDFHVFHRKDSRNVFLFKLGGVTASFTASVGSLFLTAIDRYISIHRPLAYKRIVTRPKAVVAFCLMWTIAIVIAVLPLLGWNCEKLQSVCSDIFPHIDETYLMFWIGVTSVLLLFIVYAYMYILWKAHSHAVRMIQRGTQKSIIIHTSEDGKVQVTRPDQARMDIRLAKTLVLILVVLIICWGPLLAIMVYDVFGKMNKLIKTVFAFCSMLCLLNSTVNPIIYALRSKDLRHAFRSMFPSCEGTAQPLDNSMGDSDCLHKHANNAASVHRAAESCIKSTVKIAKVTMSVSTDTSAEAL

CNC(=O)[C@@H](NC(=O)n1nc(-c2ccc(F)c(F)c2)c2c1CCC(O)C2)C(C)(C)C (mixture of isomers) [Compound 67, 3-(3,4-difluorophenyl)-N—((S)-3,3-dimethyl-1-(methylamino)-1-oxobutan-2-yl)-5-hydroxy-4,5,6,7-tetrahydro-1H-indazole-1-carboxamide]
EC50 [1]: < 1000 nM
EC50 [2, 3]: < 1000 nM

CNC(=O)[C@@H](NC(=O)n1nc(-c2ccc(F)c(F)c2)c2c1CCCC2)C(C)(C)C [Compound 29, (S)-3-(3,4-difluorophenyl)-N-(3,3-dimethyl-1-(methylamino)-1-oxobutan-2-yl)-4,5,6,7-tetrahydro-1H-indazole-1-carboxamide]
EC50 [1]: < 1000 nM
EC50 [2, 3]: < 1000 nM

CNC(=O)[C@@H](NC(=O)n1nc(-c2cc(F)c(F)cc2F)c2c1CCOC2)C(C)(C)C [Compound 30, (S)—N-(3,3-dimethyl-1-(methylamino)-1-oxobutan-2-yl)-3-(2,4,5-trifluorophenyl)-6,7-dihydropyrano[4,3-c]pyrazole-1(4H)-carboxamide]
EC50 [1]: < 1000 nM
EC50 [2, 3]: < 1000 nM

CC(C)(C)[C@H](NC(=O)n1nc(-c2cc(F)c(F)cc2F)c2c1CCOC2)C(=O)N1CC[C@H](O)C1 [Compound 31, N—((S)-1-((S)-3-hydroxypyrrolidin-1-yl)-3,3-dimethyl-1-oxobutan-2-yl)-3-(2,4,5-trifluorophenyl)-6,7-dihydropyrano[4,3-c]pyrazole-1(4H)-carboxamide]
EC50 [1]: < 1000 nM
EC50 [2, 4]: < 1000 nM

CN1CCN(C(=O)[C@@H](NC(=O)n2nc(-c3cc(F)c(F)cc3F)c3c2CCOC3)C(C)(C)C)CC1 [Compound 32, (S)—N-(3,3-dimethyl-1-(4-methylpiperazin-1-yl)-1-oxobutan-2-yl)-3-(2,4,5-trifluorophenyl)-6,7-dihydropyrano[4,3-c]pyrazole-1(4H)-carboxamide]
EC50 [1]: < 1000 nM
EC50 [2, 3]: < 1000 nM

CC(C)(C)[C@@H](CO)NC(=O)n1nc(-c2cc(F)c(F)cc2F)c2c1CCOC2 [Compound 33, (S)—N-(1-hydroxy-3,3-dimethylbutan-2-yl)-3-(2,4,5-trifluorophenyl)-6,7-dihydropyrano[4,3-c]pyrazole-1(4H)-carboxamide]
EC50 [1]: < 1000 nM
EC50 [2, 3]: < 1000 nM

COC(=O)[C@@H](NC(=O)n1nc(-c2cc(F)c(F)cc2F)c2c1CCOC2)C(C)(C)C [Compound 34, (S)-methyl 3,3-dimethyl-2-(3-(2,4,5-trifluorophenyl)-1,4,6,7-tetrahydropyrano[4,3-c]pyrazole-1-carboxamido)butanoate]
EC50 [1]: < 1000 nM
EC50 [2, 3]: < 1000 nM

CNC(=O)[C@@H](NC(=O)n1nc(-c2cc(F)c(F)cc2F)c2c1CN(C)CC2)C(C)(C)C [Compound 38, (S)—N-(3,3-dimethyl-1-(methylamino)-1-oxobutan-2-yl)-6-methyl-3-(2,4,5-trifluorophenyl)-4,5,6,7-tetrahydro-1H-pyrazolo[3,4-c]pyridine-1-carboxamide]
EC50 [1]: < 1000 nM
EC50 [2, 3]: < 1000 nM

CNC(=O)[C@@H](NC(=O)n1nc(-c2cc(F)c(F)cc2F)c2c1CCCN2C)C(C)(C)C [Compound 39, (S)—N-(3,3-dimethyl-1-(methylamino)-1-oxobutan-2-yl)-4-methyl-3-(2,4,5-trifluorophenyl)-4,5,6,7-tetrahydro-1H-pyrazolo[4,3-b]pyridine-1-carboxamide]
EC50 [1]: < 1000 nM
EC50 [2, 3]: < 1000 nM

CN1CCc2c(c(-c3cc(F)c(F)cc3F)nn2C(=O)N[C@H](C(=O)NCCO)C(C)(C)C)C1 [Compound 40, (S)—N-(1-(2-hydroxyethylamino)-3,3-dimethyl-1-oxobutan-2-yl)-5-methyl-3-(2,4,5-trifluorophenyl)-4,5,6,7-tetrahydro-1H-pyrazolo[4,3-c]pyridine-1-carboxamide]
EC50 [1]: < 1000 nM
EC50 [2, 3]: < 1000 nM

CN1CCc2c(c(-c3cc(F)c(F)cc3F)nn2C(=O)N[C@H](C(N)=O)C(C)(C)C)C1 [Compound 41, (S)—N-(1-amino-3,3-dimethyl-1-oxobutan-2-yl)-5-methyl-3-(2,4,5-trifluorophenyl)-4,5,6,7-tetrahydro-1H-pyrazolo[4,3-c]pyridine-1-carboxamide]
EC50 [1]: < 1000 nM
EC50 [2, 4]: > 1000 nM

CNC(=O)[C@@H](NC(=O)n1nc(-c2ccc(F)c(F)c2)c2c1CCN(C)C2)C(C)(C)C [Compound 42, (S)-3-(3,4-difluorophenyl)-N-(3,3-dimethyl-1-(methylamino)-1-oxobutan-2-yl)-5-methyl-4,5,6,7-tetrahydro-1H-pyrazolo[4,3-c]pyridine-1-carboxamide]
EC50 [1]: < 1000 nM
EC50 [2, 3]: < 1000 nM

CNC(=O)[C@@H](NC(=O)n1nc(-c2ccc(C(F)(F)F)cc2F)c2c1CCN(C)C2)C(C)(C)C [Compound 43, (S)—N-(3,3-dimethyl-1-(methylamino)-1-oxobutan-2-yl)-3-(2-fluoro-4-(trifluoromethyl)phenyl)-5-methyl-4,5,6,7-tetrahydro-1H-pyrazolo[4,3-c]pyridine-1-carboxamide]
EC50 [1]: < 1000 nM
EC50 [2, 4]: > 1000 nM

CNC(=O)[C@@H](NC(=O)n1nc(C(C)(C)C)c2c1CCN(C)C2)C(C)(C)C [Compound 44, (S)-3-tert-butyl-N-(3,3-dimethyl-1-(methylamino)-1-oxo-butan-2-yl)-5-methyl-4,5,6,7-tetrahydro-1H-pyrazolo[4,3-c]pyridine-1-carboxamide]
EC50 [1]: > 1000 nM
EC50 [2, 3]: < 1000 nM

CN1CCc2c(c(-c3ccc(F)c(F)c3)nn2C(=O)N2CCC(O)CC2)C1 [Compound 45, (3-(3,4-difluorophenyl)-5-methyl-4,5,6,7-tetrahydro-1H-pyrazolo[4,3-c]pyridin-1-yl)(4-hydroxypiperidin-1-yl)methanone]
EC50 [1]: > 1000 nM
EC50 [2, 4]: > 1000 nM

CN1CCc2c(c(-c3ccc(F)c(F)c3)nn2C(=O)NC(C)(C)C)C1 [Compound 46, N-tert-butyl-3-(3,4-difluorophenyl)-5-methyl-4,5,6,7-tetrahydro-1H-pyrazolo[4,3-c]pyridine-1-carboxamide]
EC50 [1]: < 1000 nM
EC50 [2, 4]: > 1000 nM

CN1CCc2c(c(-c3ccc(F)c(F)c3)nn2C(=O)N[C@H](C(=O)N2CC[C@H](O)C2)C(C)(C)C)C1 [Compound 47, 3-(3,4-difluorophenyl)-N—((S)-1-((S)-3-hydroxypyrrolidin-1-yl)-3,3-dimethyl-1-oxobutan-2-yl)-5-methyl-4,5,6,7-tetrahydro-1H-pyrazolo[4,3-c]pyridine-1-carboxamide]
EC50 [1]: < 1000 nM
EC50 [2, 4]: > 1000 nM

CN1CCc2c(c(-c3ccc(F)c(F)c3)nn2C(=O)N[C@H](CO)C(C)(C)C)C1 [Compound 48, (S)-3-(3,4-difluorophenyl)-N-(1-hydroxy-3,3-dimethylbutan-2-yl)-5-methyl-4,5,6,7-tetrahydro-1H-pyrazolo[4,3-c]pyridine-1-carboxamide]
EC50 [1]: > 1000 nM
EC50 [2, 3]: < 1000 nM

CC(C)C[C@H](NC(=O)n1nc(-c2ccc(F)c(F)c2)c2c1CCN(C)C2)C(N)=O [Compound 49, (S)—N-(1-amino-4-methyl-1-oxopentan-2-yl)-3-(3,4-difluorophenyl)-5-methyl-4,5,6,7-tetrahydro-1H-pyrazolo[4,3-c]pyridine-1-carboxamide]
EC50 [1]: < 1000 nM
EC50 [2, 3]: < 1000 nM

CC[C@H](C)[C@H](NC(=O)n1nc(-c2ccc(F)c(F)c2)c2c1CCN(C)C2)C(N)=O [Compound 50, N-((2S,3S)-1-amino-3-methyl-1-oxopentan-2-yl)-3-(3,4-difluorophenyl)-5-methyl-4,5,6,7-tetrahydro-1H-pyrazolo[4,3-c]pyridine-1-carboxamide]
EC50 [1]: < 1000 nM
EC50 [2, 3]: < 1000 nM

CC(C)(C)[C@@H](CO)NC(=O)n1nc(-c2ccc(F)c(F)c2)c2c1CCCC2 [Compound 51, (S)-3-(3,4-difluorophenyl)-N-(1-hydroxy-3,3-dimethylbutan-2-yl)-4,5,6,7-tetrahydro-1H-indazole-1-carboxamide]
EC50 [1]: < 1000 nM
EC50 [2, 3]: < 1000 nM

CNC(=O)[C@@H](NC(=O)n1nc(-c2ccc(F)c(F)c2)c2c1CCNC2)C(C)(C)C [Compound 52, (S)-3-(3,4-difluorophenyl)-N-(3,3-dimethyl-1-(methylamino)-1-oxobutan-2-yl)-4,5,6,7-tetrahydro-1H-pyrazolo[4,3-c]pyridine-1-carboxamide]
EC50 [1]: < 1000 nM
EC50 [2, 3]: < 1000 nM

CNC(=O)[C@@H](NC(=O)n1nc(-c2ccc(F)cc2)c2c1CCNC2)C(C)(C)C [Compound 53, (S)—N-(3,3-dimethyl-1-(methylamino)-1-oxobutan-2-yl)-3-(4-fluorophenyl)-4,5,6,7-tetrahydro-1H-pyrazolo[4,3-c]pyridine-1-carboxamide]
EC50 [1]: < 1000 nM
EC50 [2, 3]: < 1000 nM

CNC(=O)[C@@H](NC(=O)n1nc(-c2ccc(F)cc2)c2c1CCN(C)C2)C(C)(C)C [Compound 54, (S)—N-(3,3-dimethyl-1-(methylamino)-1-oxobutan-2-yl)-3-(4-fluorophenyl)-5-methyl-4,5,6,7-tetrahydro-1H-pyrazolo[4,3-c]pyridine-1-carboxamide]
EC50 [1]: < 1000 nM
EC50 [2, 3]: < 1000 nM
